Laboratory results from US12435087B2, “Modulators of DCN-1 and methods of use thereof” (Cellarity, Inc., priority 2023, dated 2025).
Read-outs that look alike come from different tables or passages of the source.

Experiments:
[1] = target: DCN1 (DCUND1) protein PONY domain (Homo sapiens (Human), UniProt Q96GG9); assay: TR-FRET assay (binding to DCN-1, displacement of FAM-labeled probe)
Method in brief: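 Compounds read at 1, 5 and 24 h, 0.1% final DMSO, by TR-FRET between terbium-streptavidin on biotinylated DCN1 PONY domain (E. coli) and a FAM-tagged non-covalent inhibitor probe. Two setups used, 5 nM protein with 20 nM labelled probe, or 0.31 nM protein with 100 nM labelled plus 800 nM unlabelled probe; buffer had TritonX and 200 mM NaCl. % activity relative to high (with probe) and low (without probe) controls.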

DCN1 protein = DCN1 protein (Homo sapiens (Human), UniProt Q96GG9); assay: Intact protein MS analysis with the RapidFire-TOF system (covalent adduct formation); type: binding; details: 400 nM DCN1, incubated at room temperature for 3 hours
Chain of DCN1 protein (Q96GG9 whole entry): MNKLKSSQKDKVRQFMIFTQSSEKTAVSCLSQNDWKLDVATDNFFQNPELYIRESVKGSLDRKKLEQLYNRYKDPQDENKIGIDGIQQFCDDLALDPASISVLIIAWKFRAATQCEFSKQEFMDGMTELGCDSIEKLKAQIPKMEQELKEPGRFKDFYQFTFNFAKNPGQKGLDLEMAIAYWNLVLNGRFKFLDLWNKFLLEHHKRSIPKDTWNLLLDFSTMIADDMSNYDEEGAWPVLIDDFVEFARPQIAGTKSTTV
Method in brief: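 Tag-free His-TEV-DCN1 expressed in E. coli at 400 nM in 25 mM Tris-HCl, 200 mM NaCl, 1 mM DTT, incubated with 11 compound concentrations at room temperature for 3 h unless otherwise specified. Quenched with 0.2% formic acid; intact-protein RapidFire Q-TOF MS, deconvoluted to detect parent and compound-adduct masses.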

[2] = 24 hr after treatment with compound, read-out: TR FRET IC50 24 hr
[3] = TR FRET IC50 1 hr (nM), 1 hr after treatment with compound
[4] = read-out: TR FRET IC50 1 hr, 1 hr after treatment with compound

Chain of DCN1 (DCUND1) protein PONY domain (Q96GG9 60-248): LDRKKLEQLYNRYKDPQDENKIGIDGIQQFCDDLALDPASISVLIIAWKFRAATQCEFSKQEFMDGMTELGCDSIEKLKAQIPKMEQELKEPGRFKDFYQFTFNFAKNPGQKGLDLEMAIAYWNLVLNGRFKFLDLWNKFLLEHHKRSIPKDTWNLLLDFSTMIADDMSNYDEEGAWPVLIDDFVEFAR

SMILES | IC50 [1, 2] [nM] | IC50 [1, 3] [nM] | Emax (DCN1 protein) [%] | IC50 [1, 4] [nM] | % Adduct Formation (MS Emax) (DCN1 protein)
CCN1C(=O)[C@@H](NC(=O)c2cccc(C(F)(F)F)c2)[C@@H](c2cccc(NC#N)c2)c2c(C)nn(-c3ccccc3)c21 (racemic) [Compound I-22] | > 3000 | > 3000 | 0 to 30 | – | –
C/C=C/C(=O)Nc1cccc([C@H]2c3c(C)nn(-c4ccccc4)c3N(CC)C(=O)[C@H]2NC(=O)c2cccc(C(F)(F)F)c2)c1 (racemic) [Compound I-23] | > 3000 | > 3000 | 0 to 30 | – | –
CCN1C(=O)[C@@H](NC(=O)c2cccc(C(F)(F)F)c2)[C@@H](c2cccc(NC(=O)C3=CCCC3)c2)c2c(C)nn(-c3ccccc3)c21 (racemic) [Compound I-24] | > 3000 | > 3000 | 0 to 30 | – | –
C=CC(=O)Nc1cccc([C@H]2c3c(C)nn(-c4ccccc4)c3N(CC)C(=O)[C@H]2NC(=O)c2cccc(C(F)(F)F)c2)c1 (racemic) [Compound I-25] | > 3000 | > 3000 | 0 to 30 | – | –
CCN1C(=O)[C@@H](NC(=O)c2cccc(C(F)(F)F)c2)[C@@H](c2cccc(NC(=O)/C=C/C(F)(F)F)c2)c2c(C)nn(-c3ccccc3)c21 (racemic) [Compound I-27] | > 3000 | > 3000 | 0 to 30 | – | –
CCN1C(=O)[C@H](NC(=O)c2cccc(C(F)(F)F)c2)[C@@H](c2cccc(N3CC=CC3=O)c2)c2c(C)nn(-c3ccccc3)c21 (racemic) [Compound I-28, rac-N-((4R,5S)-7-ethyl-3-methyl-6-oxo-4-(3-(2-oxo-2,5-dihydro-1H-pyrrol-1-yl)phenyl)-1-phenyl-4,5,6,7-tetrahydro-1H-pyrazolo[3,4-b]pyridin-5-yl)-3-(trifluoromethyl)benzamide] | 1000 to 3000 | 1000 to 3000 | 80 to 100 | – | –
CCN1C(=O)[C@H](NC(=O)c2cccc(C(F)(F)F)c2)[C@@H](c2cccc(NC(=O)/C=C/CN(C)C)c2)c2c(C)nn(-c3ccccc3)c21 (racemic) [Compound I-38] | – | 1000 to 3000 | 80 to 100 | – | –
CCN1C(=O)[C@H](NC(=O)c2cccc(C(F)(F)F)c2)[C@@H](c2cccc(NC(=O)/C(C#N)=C/C(C)C)c2)c2c(C)nn(-c3ccccc3)c21 (racemic) [Compound I-46, rac-N-((4R,5S)-4-(3-((E)-2-cyano-4-methylpent-2-enamido)phenyl)-7-ethyl-3-methyl-6-oxo-1-phenyl-4,5,6,7-tetrahydro-1H-pyrazolo[3,4-b]pyridin-5-yl)-3-(trifluoromethyl)benzamide] | ≤ 200 | ≤ 200 | 80 to 100 | – | –
CCN1C(=O)[C@H](NC(=O)c2cccc(C(F)(F)F)c2)[C@@H](c2cccc(NC(=O)/C=C/CN3CCOCC3)c2)c2c(C)nn(-c3ccccc3)c21 (racemic) [Compound I-47] | 1000 to 3000 | – | 0 to 30 | > 3000 | –
C=C(CN1CCC(F)(F)C1)C(=O)Nc1cccc([C@@H]2c3c(C)nn(-c4ccccc4)c3N(CC)C(=O)[C@H]2NC(=O)c2cccc(C(F)(F)F)c2)c1 (racemic) [Compound I-60] | ≤ 200 | – | 80 to 100 | ≤ 200 | –
C=C(CN1CC2(COC2)C1)C(=O)Nc1cccc([C@@H]2c3c(C)nn(-c4ccccc4)c3N(CC)C(=O)[C@H]2NC(=O)c2cccc(C(F)(F)F)c2)c1 (racemic) [Compound I-64] | ≤ 200 | – | 80 to 100 | ≤ 200 | –
C=C(CN1CCOCC1)C(=O)Nc1cccc([C@H]2c3c(C)nn(-c4ccccc4)c3N(CC)C(=O)[C@@H]2NC(=O)c2ccn(C(F)(F)F)n2)c1 (racemic) [Compound I-65] | ≤ 200 | – | 80 to 100 | ≤ 200 | –
CCN1C(=O)[C@H](NC(=O)c2cccc(C(F)(F)F)c2)[C@@H](c2cccc(NC(=O)/C(C#N)=C/C3CC3)c2)c2c(C)nn(-c3ccccc3)c21 (racemic) [Compound I-68, rac-N-((4R,5S)-4-(3-((E)-2-cyano-3-cyclopropylacrylamido)phenyl)-7-ethyl-3-methyl-6-oxo-1-phenyl-4,5,6,7-tetrahydro-1H-pyrazolo[3,4-b]pyridin-5-yl)-3-(trifluoromethyl)benzamide] | 200 to 1000 | ≤ 200 | 80 to 100 | – | –
CCN1C(=O)[C@H](NC(=O)c2cccc(C(F)(F)F)c2)[C@@H](c2cccc(NC(=O)/C(C#N)=C/C(C)(C)C)c2)c2c(C)nn(-c3ccccc3)c21 (racemic) [Compound I-69, ˜{N}—[˜{rac}-(4˜{S},5˜{R})-7-ethyl-3-methyl-6-oxo-1-phenyl-4-[3-[[˜{rac}-(˜{E})-2-cyano-4,4-dimethyl-pent-2-enoyl]amino]phenyl]-4,5-dihydropyrazolo[3,4-b]pyridin-5-yl]-3-(trifluoromethyl)benzamide] | 200 to 1000 | 200 to 1000 | 80 to 100 | – | –
C=CC(=O)Nc1cccc([C@H]2c3c(C)nn(-c4ccccc4)c3N(CC)C(=O)[C@@H]2NC(=O)c2cccc(C(F)(F)F)c2)c1 (racemic) [Compound I-77] | 200 to 1000 | 1000 to 3000 | 80 to 100 | – | –
CCN1C(=O)[C@H](NC(=O)c2cccc(C(F)(F)F)c2)[C@@H](c2cccc(NC(=O)C3=CCC3)c2)c2c(C)nn(-c3ccccc3)c21 (racemic) [Compound I-78, ˜{N}—[˜{rac}-(4˜{S},5˜{R})-4-[3-(cyclobutene-1-carbonylamino)phenyl]-7-ethyl-3-methyl-6-oxo-1-phenyl-4,5-dihydropyrazolo[3,4-b]pyridin-5-yl]-3-(trifluoromethyl)benzamide] | 200 to 1000 | 1000 to 3000 | 80 to 100 | – | –
CCN1C(=O)[C@H](NC(=O)c2cccc(C(F)(F)F)c2)[C@@H](c2cccc(NC(=O)CC#N)c2)c2c(C)nn(-c3ccccc3)c21 (racemic) [Compound I-103] | 1000 to 3000 | 1000 to 3000 | 0 to 30 | – | –
CCN1C(=O)[C@H](NC(=O)c2cccc(C(F)(F)F)c2)[C@@H](c2cccc(N3CC=CS3(=O)=O)c2)c2c(C)nn(-c3ccccc3)c21 (racemic) [Compound I-130, rac-N-((4R,5S)-4-(3-(1,1-dioxidoisothiazol-2 (3H)-yl)phenyl)-7-ethyl-3-methyl-6-oxo-1-phenyl-4,5,6,7-tetrahydro-1H-pyrazolo[3,4-b]pyridin-5-yl)-3-(trifluoromethyl)benzamide] | 200 to 1000 | > 3000 | 0 to 30 | – | –
CCN1C(=O)[C@H](NC(=O)c2cccc(C(F)(F)F)c2)[C@@H](c2cccc(NC(=O)C#CCN(C)C)c2)c2c(C)nn(-c3ccccc3)c21 (racemic) [Compound I-133, rac-N-((4R,5S)-4-(3-(4-(dimethylamino)but-2-ynamido)phenyl)-7-ethyl-3-methyl-6-oxo-1-phenyl-4,5,6,7-tetrahydro-1H-pyrazolo[3,4-b]pyridin-5-yl)-3-(trifluoromethyl)benzamide] | ≤ 200 | ≤ 200 | 80 to 100 | – | –
C=C(CN1CCC1)C(=O)Nc1cccc([C@H]2c3c(C)nn(-c4ccccc4)c3N(CC)C(=O)[C@@H]2NC(=O)c2cccc(C(F)(F)F)c2)c1 (racemic) [Compound I-137] | ≤ 200 | – | 80 to 100 | ≤ 200 | –
CCN1C(=O)[C@H](NC(=O)c2cccc(C(F)(F)F)c2)[C@@H](c2cccc(NC(=O)/C=C/C(=O)OC)c2)c2c(C)nn(-c3ccccc3)c21 (racemic) [Compound I-141] | ≤ 200 | – | 80 to 100 | ≤ 200 | –
C/C=C(\CN1CCOCC1)C(=O)Nc1cccc([C@@H]2c3c(C)nn(-c4ccccc4)c3N(CC)C(=O)[C@H]2NC(=O)c2cccc(C(F)(F)F)c2)c1 (racemic) [Compound I-142] | ≤ 200 | ≤ 200 | 80 to 100 | – | –
C=C(CN(C)C)C(=O)Nc1cccc([C@H]2c3c(C)nn(-c4ccccc4)c3N(CC)C(=O)[C@@H]2NC(=O)c2cccc(C(F)(F)F)c2)c1 (racemic) [Compound I-146] | ≤ 200 | – | 80 to 100 | ≤ 200 | –
CC#CC(=O)Nc1ccccc1[C@H]1c2cnn(-c3ccccc3)c2N(CC)C(=O)[C@@H]1NC(=O)c1cccc(C(F)(F)F)c1 (racemic) [Compound I-159] | > 3000 | > 3000 | 0 to 30 | – | –
C/C=C(\CN1CCN(C2COC2)CC1)C(=O)Nc1cccc([C@@H]2c3c(C)nn(-c4ccccc4)c3N(CC)C(=O)[C@H]2NC(=O)c2nccc(C(F)(F)F)n2)c1 (racemic) [Compound I-229] | ≤ 200 | ≤ 200 | 80 to 100 | – | –
C=C(CN1CCOCC1)C(=O)Nc1cccc([C@H]2c3c(C)nn(-c4ccccc4)c3N(CC)C(=O)C2NC(=O)c2cccc(C(F)(F)F)c2)c1 (stereo in doubt) [Compound I-83, N-((4S,5R)-7-ethyl-3-methyl-4-(3-(2-(morpholinomethyl)acrylamido)phenyl)-6-oxo-1-phenyl-4,5,6,7-tetrahydro-1H-pyrazolo[3,4-b]pyridin-5-yl)-3-(trifluoromethyl)benzamide] | ≤ 200 | – | – | ≤ 200 | ++ (MS Emax % adduct formation greater than 30.0 and less than or equal to 80.0)
C=C(CN1CCC1)C(=O)NCc1cccc([C@@H]2c3cnn(-c4ccccc4)c3N(CC)C(=O)[C@H]2NC(=O)c2cccc(C(F)(F)F)c2)c1 [Compound I-1] | ≤ 200 | – | 80 to 100 | ≤ 200 | –
C=C(CN1CCN(C2COC2)CC1)C(=O)NCc1cccc([C@@H]2c3cnn(-c4ccccc4)c3N(CC)C(=O)[C@H]2NC(=O)c2cccc(C(F)(F)F)c2)c1 [Compound I-4] | ≤ 200 | – | 80 to 100 | ≤ 200 | –
